Like-named read-outs stand apart in the source and are kept apart here.
How the values were obtained:
[1] = tested on: CYP3A4; set-up: method as in PMID 34072547; conditions: cited from earlier work
[2] = tested on: erosive esophagitis; set-up: method as in PMID 36504556; conditions: 8-week treatment, patients with erosive esophagitis; cited from earlier work
[3] = set-up: method as in PMID 29863280, doi:10.1007/s11938-020-00330-x; conditions: no signs of hepatotoxicity; cited from earlier work
[4] = tested on: human, dog, monkey, mouse, and rat hepatocytes; assay: In vitro metabolic profiling of JP-1366 in hepatocytes; assay type: in vitro ADME; conditions: 10 µM JP-1366, 60 min; H human, D dog, Mk monkey, M mouse, R rat
Experimental: Cryopreserved human, dog, monkey, mouse, and rat hepatocytes were purified and recovered according to the manufacturer’s protocol. […] The metabolic reaction in each sample well was quenched by adding 120 μL of ice-cold acetonitrile.
MS spectra were obtained in positive-ion mode using electrospray ionization under optimized conditions as follows: capillary temperature, 350 °C; sheath gas flow rate, 40 (arbitrary units); aux gas flow rate, 10 (arbitrary units); and aux gas heater temperature, 350 °C. Full MS scan with data-dependent MS/MS was performed from m/z 100 to m/z 1000.

[5] = biological target: T1, human cDNA-expressed CYP2C9 (Homo sapiens, UniProt P11712); assay: Enzyme kinetics of JP-1366 metabolism in cDNA-expressed CYP2C9; assay type: in vitro ADME
T1 construct: purchased Corning Life Sciences
Experimental: (§1) The reaction was initiated by adding 5 μL of NADPH-generating system in triplicate, and the mixture was further incubated for 30 min at 37 °C in a shaking water bath.
(§2) The concentrations of the metabolites were quantitated, and their formation rates (pmol/mg protein/min) were calculated by dividing the amounts of metabolites formed from the incubation with human liver microsomes and human cDNA-expressed CYP or UGT enzymes by the incubation time.

[6] = biological target: T2, human cDNA-expressed CYP2C19 (Homo sapiens, UniProt P33261); assay: Enzyme kinetics of JP-1366 metabolism in cDNA-expressed CYP2C19; assay type: in vitro ADME
T2 construct: purchased Corning Life Sciences
Experimental: as §1, §2

[7] = biological target: T3, human cDNA-expressed CYP2D6 (Homo sapiens, UniProt P10635); assay: Enzyme kinetics of JP-1366 metabolism in cDNA-expressed CYP2D6; assay type: in vitro ADME
T3 construct: purchased Corning Life Sciences
Experimental: as §1, §2

[8] = biological target: T4, human cDNA-expressed CYP3A4 (Homo sapiens, UniProt P08684); assay: Enzyme kinetics of JP-1366 metabolism in cDNA-expressed CYP3A4; assay type: in vitro ADME
T4 construct: purchased Corning Life Sciences
Experimental: as §1, §2

[9] = biological target: T5, human cDNA-expressed CYP3A5 (Homo sapiens, UniProt P20815); assay: Enzyme kinetics of JP-1366 metabolism in cDNA-expressed CYP3A5; assay type: in vitro ADME
T5 construct: purchased Corning Life Sciences
Experimental: as §1, §2

[10] = tested on: human liver microsomes (HLM); assay: Enzyme kinetics of JP-1366 metabolism in human liver microsomes; assay type: in vitro ADME; conditions: for Vmax: formation of the labelled metabolite from JP-1366, HLM
Experimental: as §1, §2

[11] = tested on: CYP3A4/5; assay: Combined contribution of CYP3A4/5 to formation of major JP-1366 metabolites; assay type: in vitro ADME, human; conditions: sum of CYP3A4 and CYP3A5 contributions
Experimental: as §1, §2

[12] = tested on: human liver microsomes; assay: JP-1366 metabolism in human liver microsomes with NADPH, with or without SKF-525A; assay type: in vitro ADME
[13] = tested on: human liver microsomes (HLM); assay: Enzyme kinetics of M1 glucuronidation to M15 in human liver microsomes; assay type: in vitro ADME; conditions: formation of M15 from M1, HLM
Experimental: (§3) By adding 5 μL of UDPGA (final concentration, 5 mM), the reaction was initiated, and the mixture was further incubated for 30 min at 37 °C in a shaking water bath. The reaction was terminated by adding 100 μL of ice-cold acetonitrile containing 5 ng/mL of lansoprazole (IS).
as §2

[14] = biological target: T6, human cDNA-expressed UGT2B7 (Homo sapiens, UniProt P16662); assay: Enzyme kinetics of M1 glucuronidation to M15 in cDNA-expressed UGT2B7; assay type: in vitro ADME; conditions: formation of M15 from M1, UGT2B7
T6 construct: purchased Corning Life Sciences
Experimental: as §3, §2

[15] = biological target: T7, human cDNA-expressed UGT2B17 (Homo sapiens, UniProt O75795); assay: Enzyme kinetics of M1 glucuronidation to M15 in cDNA-expressed UGT2B17; assay type: in vitro ADME; conditions: formation of M15 from M1, UGT2B17
T7 construct: purchased Corning Life Sciences
Experimental: as §3, §2

[16] = tested on: esterase; conditions: 5 μM JP-1366, human liver microsomes
Experimental: The experimental protocols were performed in accordance with FDA guidelines and the previous reports with slight modifications. […] The reactions were stopped by adding 100 μL of lansoprazole (IS) in ice-cold acetonitrile (100 ng/mL).

[17] = Apparent permeability in Caco-2 cells; assay type: in vitro ADME; conditions: human
Experimental: Caco-2 cells (passage no. 41–42) were grown in tissue culture flasks containing Dulbecco’s Modified Eagle Medium supplemented with 20% FBS, 1% nonessential amino acids, and 1% penicillin–streptomycin. […] The culture medium was replaced every other day. On the day of the experiment, the growth medium was discarded, and the attached cells were washed with prewarmed HBSS (pH 7.4) and preincubated with HBSS for 20 min at 37 °C. […] Aliquots (30 μL) of each sample were vortex-mixed with 90 μL of IS solution for 1 min, and then centrifugation was performed at 13,500 rpm at 4 °C for 5 min. Aliquots (5 μL) of the supernatant were injected into the LC-MS/MS for analysis.

[18] = cited from earlier work
[19] = tested on: gastric pH; conditions: cited from earlier work; for % time pH > 4.0 over a period of 24 h: 40 mg dose group, healthy subjects
[20] = set-up: method as in PMID 16011666; conditions: cited from earlier work
[21] = biological target: porcine H^+/K^+-ATPase; set-up: method as in PMID 35745870, PMID 33355910; conditions: reversible inhibition; cited from earlier work
[22] = tested on: gastric pH; set-up: method as in PMID 31437865; conditions: cited from earlier work
[23] = tested on: gastric pH; set-up: method as in PMID 35146797; conditions: 50 mg of tegoprazan dose; cited from earlier work
[24] = tested on: CYP3A4; set-up: method as in PMID 35745870; conditions: cited from earlier work
[25] = formation of the labelled metabolite from JP-1366, CYP2C9
[26] = formation of the labelled metabolite from JP-1366, CYP2C19
[27] = formation of the labelled metabolite from JP-1366, CYP2D6
[28] = formation of the labelled metabolite from JP-1366, CYP3A4
[29] = formation of the labelled metabolite from JP-1366, CYP3A5

T5 sequence (P20815 whole entry): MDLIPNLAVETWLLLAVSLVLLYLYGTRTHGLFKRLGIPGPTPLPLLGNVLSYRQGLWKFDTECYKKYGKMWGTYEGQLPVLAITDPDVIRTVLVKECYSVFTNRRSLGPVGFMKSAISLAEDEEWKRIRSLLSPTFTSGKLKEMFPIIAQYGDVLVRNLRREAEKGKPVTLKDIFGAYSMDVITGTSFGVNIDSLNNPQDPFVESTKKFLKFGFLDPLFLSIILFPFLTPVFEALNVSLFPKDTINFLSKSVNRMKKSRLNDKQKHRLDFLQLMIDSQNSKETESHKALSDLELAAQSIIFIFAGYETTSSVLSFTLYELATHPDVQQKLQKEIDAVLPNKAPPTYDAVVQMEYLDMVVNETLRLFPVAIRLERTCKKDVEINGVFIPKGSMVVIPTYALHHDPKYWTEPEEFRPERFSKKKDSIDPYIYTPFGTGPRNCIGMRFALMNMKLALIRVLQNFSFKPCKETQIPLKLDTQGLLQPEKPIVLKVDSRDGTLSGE
T3 sequence (P10635 whole entry): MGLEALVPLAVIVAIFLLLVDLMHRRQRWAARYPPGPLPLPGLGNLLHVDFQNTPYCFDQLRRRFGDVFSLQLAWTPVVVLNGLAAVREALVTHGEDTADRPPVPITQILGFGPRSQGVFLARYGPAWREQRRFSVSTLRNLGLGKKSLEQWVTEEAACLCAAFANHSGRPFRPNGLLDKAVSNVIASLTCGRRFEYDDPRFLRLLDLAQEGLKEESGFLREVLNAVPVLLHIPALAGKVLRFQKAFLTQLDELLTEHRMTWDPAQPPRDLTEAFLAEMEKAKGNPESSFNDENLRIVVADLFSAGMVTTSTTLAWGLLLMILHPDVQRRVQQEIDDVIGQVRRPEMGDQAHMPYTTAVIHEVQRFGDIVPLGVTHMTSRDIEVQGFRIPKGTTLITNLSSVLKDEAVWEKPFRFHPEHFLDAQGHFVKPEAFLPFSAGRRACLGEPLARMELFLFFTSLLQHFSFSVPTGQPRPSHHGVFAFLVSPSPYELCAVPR
T4 sequence (P08684 whole entry): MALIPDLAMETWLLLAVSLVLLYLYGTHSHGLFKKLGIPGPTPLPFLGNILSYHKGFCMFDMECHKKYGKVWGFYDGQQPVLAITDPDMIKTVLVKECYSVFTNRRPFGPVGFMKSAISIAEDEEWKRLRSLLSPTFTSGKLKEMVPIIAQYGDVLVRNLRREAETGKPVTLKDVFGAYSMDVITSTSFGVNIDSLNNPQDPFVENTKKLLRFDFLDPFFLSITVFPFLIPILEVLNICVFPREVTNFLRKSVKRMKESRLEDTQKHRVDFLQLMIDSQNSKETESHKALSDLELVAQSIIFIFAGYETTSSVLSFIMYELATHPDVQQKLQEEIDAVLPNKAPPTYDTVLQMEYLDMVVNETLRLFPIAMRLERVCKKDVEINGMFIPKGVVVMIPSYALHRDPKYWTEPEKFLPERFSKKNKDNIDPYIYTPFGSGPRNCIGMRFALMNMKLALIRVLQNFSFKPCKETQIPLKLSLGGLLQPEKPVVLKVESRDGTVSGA
T2 sequence (P33261 whole entry): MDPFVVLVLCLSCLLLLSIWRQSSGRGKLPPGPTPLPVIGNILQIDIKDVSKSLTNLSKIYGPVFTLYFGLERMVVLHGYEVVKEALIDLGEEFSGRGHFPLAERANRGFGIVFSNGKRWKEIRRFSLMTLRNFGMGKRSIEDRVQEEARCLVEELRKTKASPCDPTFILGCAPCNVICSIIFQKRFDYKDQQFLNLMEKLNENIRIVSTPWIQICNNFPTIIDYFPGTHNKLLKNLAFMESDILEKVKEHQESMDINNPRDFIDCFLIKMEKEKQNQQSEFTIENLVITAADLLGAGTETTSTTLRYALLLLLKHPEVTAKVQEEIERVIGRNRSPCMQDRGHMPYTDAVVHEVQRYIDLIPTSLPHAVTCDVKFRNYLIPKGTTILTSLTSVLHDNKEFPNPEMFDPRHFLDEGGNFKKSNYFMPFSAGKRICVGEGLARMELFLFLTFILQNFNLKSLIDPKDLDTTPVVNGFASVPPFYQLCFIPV
T1 sequence (P11712 whole entry): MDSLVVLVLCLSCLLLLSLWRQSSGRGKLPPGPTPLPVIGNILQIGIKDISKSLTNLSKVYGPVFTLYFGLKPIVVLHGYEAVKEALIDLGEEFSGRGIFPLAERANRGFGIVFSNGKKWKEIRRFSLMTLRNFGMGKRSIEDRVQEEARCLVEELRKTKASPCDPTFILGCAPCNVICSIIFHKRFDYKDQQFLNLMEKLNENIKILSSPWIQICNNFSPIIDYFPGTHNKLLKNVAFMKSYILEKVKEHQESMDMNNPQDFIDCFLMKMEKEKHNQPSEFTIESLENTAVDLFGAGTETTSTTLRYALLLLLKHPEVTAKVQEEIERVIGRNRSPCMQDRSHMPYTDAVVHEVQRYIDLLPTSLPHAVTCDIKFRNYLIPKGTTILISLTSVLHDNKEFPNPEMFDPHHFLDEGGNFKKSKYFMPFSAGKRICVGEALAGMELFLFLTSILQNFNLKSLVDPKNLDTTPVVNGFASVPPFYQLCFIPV
T6 sequence (P16662 24-529): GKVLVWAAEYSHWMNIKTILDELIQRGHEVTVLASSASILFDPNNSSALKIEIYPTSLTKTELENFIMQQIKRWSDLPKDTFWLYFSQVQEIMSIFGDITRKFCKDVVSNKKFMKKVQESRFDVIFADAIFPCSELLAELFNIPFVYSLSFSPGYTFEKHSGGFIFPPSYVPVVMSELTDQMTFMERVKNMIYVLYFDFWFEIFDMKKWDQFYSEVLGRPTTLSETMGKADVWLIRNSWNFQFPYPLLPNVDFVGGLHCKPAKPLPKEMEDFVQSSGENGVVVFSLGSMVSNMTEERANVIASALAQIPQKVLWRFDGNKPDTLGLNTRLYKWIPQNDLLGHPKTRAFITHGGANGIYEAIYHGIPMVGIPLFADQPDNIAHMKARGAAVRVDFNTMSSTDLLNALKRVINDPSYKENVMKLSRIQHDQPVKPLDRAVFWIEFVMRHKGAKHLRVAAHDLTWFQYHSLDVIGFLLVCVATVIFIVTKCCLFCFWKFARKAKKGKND
T7 sequence (O75795 24-530): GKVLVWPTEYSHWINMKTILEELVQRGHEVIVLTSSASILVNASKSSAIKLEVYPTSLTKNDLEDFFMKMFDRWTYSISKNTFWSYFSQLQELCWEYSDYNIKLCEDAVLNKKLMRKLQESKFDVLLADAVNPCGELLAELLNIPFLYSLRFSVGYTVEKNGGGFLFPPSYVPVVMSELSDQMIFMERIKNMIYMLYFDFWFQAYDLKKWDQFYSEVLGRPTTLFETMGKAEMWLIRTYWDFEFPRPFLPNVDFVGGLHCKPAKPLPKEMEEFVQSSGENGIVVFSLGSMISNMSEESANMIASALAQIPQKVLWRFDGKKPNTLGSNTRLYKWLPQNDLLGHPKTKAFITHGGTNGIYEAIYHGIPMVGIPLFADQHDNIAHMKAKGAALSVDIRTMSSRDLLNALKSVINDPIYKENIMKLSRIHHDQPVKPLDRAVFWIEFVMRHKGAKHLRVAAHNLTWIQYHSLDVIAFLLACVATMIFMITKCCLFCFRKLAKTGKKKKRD

## CNCc1cn(S(=O)(=O)c2cccc(F)c2)c(-c2ccc(F)cc2F)c1OC [Fexuprazan]
[1]
  contribution of CYP3A4 to formation of M11 (hydroxylation): > 60%
  contribution of CYP3A4 to formation of M14 (oxidative deamination): more than 80%
[2]
  erosive esophagitis healing versus esomeprazole 40 mg: non-inferior
[3]
  tolerability: well tolerated

## Cc1nc2c(N)cc(C(=O)N3CCC3)cn2c1C [M6, (8-amino-2,3-dimethylimidazo[1,2-a]pyridin-6-yl)(azetidin-1-yl)methanone]
[4]
  Hepatocytes (species in which the metabolite was found): H, D, Mk, M, R
[5]; [25]
  CLint: 0.0070 μL/min/pmol CYP
  n (Hill coefficient): 0.7
[5]; relative contribution of CYP2C9 to formation of the labelled metabolite
  Contribution (%): 2.8%
[6]; [26]
  CLint: 0.0023 μL/min/pmol CYP
  n (Hill coefficient): 0.6
[6]; relative contribution of CYP2C19 to formation of the labelled metabolite
  Contribution (%): 0.1%
[7]; [27]
  CLint: 0.0015 μL/min/pmol CYP
  n (Hill coefficient): 0.7
[7]; relative contribution of CYP2D6 to formation of the labelled metabolite
  Contribution (%): 0.1%
[8]; [28]
  CLint: 0.77 μL/min/pmol CYP
  n (Hill coefficient): 1.8
[8]; relative contribution of CYP3A4 to formation of the labelled metabolite
  Contribution (%): 28.1%
[9]; [29]
  CLint: 0.41 μL/min/pmol CYP
  n (Hill coefficient): 1.5
[9]; relative contribution of CYP3A5 to formation of the labelled metabolite
  Contribution (%): 68.9%
[10]
  Vmax: 798.8 pmol/min/mg protein
[10]; substrate inhibition kinetics, formation of the labelled metabolite, HLM
  Ki: 105 µM
[11]
  contribution of CYP3A4/5 to formation of the metabolite from JP-1366: 97.0%

## Cc1cccc(COC2OC(C(=O)O)C(O)C(O)C2O)c1CNc1cc(C(=O)N2CCC2)cn2c(C)c(C)nc12 (centres unmarked) [M15]
[4]
  Hepatocytes (species in which the metabolite was found): H, D, Mk, M, R
[12]; 5 μM JP-1366
  detection of metabolite after incubation of JP-1366 in human liver microsomes with NADPH: not detected
[13]
  CLint: 1.29 μL/min/mg Protein
  Vmax: 74.9 pmol/min/mg Protein
  n (Hill coefficient): 1.0
[14]
  CLint: 0.60 μL/min/mg Protein
  n (Hill coefficient): 0.8
[15]
  CLint: 1.27 μL/min/mg Protein
[15]; substrate inhibition
  Ki: 59 µM

## Cc1cccc(C)c1CNc1cc(C(=O)O)cn2c(C)c(C)nc12 [M23, 8-((2,6-dimethylbenzyl)amino)-2,3-dimethylimidazo[1,2-a]pyridine-6-carboxylic acid]
[4]
  Hepatocytes (species in which the metabolite was found): H, D, M, R
[10]
  Vmax: 23.2 pmol/min/mg protein

## [F-].[Na+] [NaF]
[16]; 100 μM NaF
  inhibition of formation of M23 from JP-1366: 18.9% ± 3.9%
[16]; 1000 μM NaF
  inhibition of formation of M23 from JP-1366: 73.3% ± 0.3%

## CC(C)NCC(O)COc1cccc2ccccc12 (centres unmarked) [Propranolol, reference compound]
[17]; Caco-2, pH 7.4
  Papp A→B at 1 h, 4 µM: 9.75 ± 0.68 ×10⁻⁶ cm/s
  Papp B→A at 1 h, 4 µM: 12.2 ± 1.51 ×10⁻⁶ cm/s
[17]; pH 7.4, Caco-2, mean Papp,BA / mean Papp,AB, read-out: ER
  efflux ratio at 1 h, 4 µM: 1.3

## CCCC(C(=O)OCCN(CC)CC)(c1ccccc1)c1ccccc1 [SKF-525A, reference compound]
[12]; SKF-525A 10 μM and 100 μM, human liver microsomes
  effect on formation of M23 from JP-1366: not inhibited

## CNCc1cc(-c2ccccc2F)n(S(=O)(=O)c2cccnc2)c1 [Vonoprazan]
[18]
  pKa: 9.37

## COc1ccc2nc([S@@+]([O-])Cc3ncc(C)c(OC)c3C)[nH]c2c1 [esomeprazole, reference compound]
[19]; MAD
  % time pH > 4.0 over a period of 24 h: 56.56% ± 22.47%
[19]; SAD
  % time pH > 4.0 over a period of 24 h: 72.06% ± 13.43%
[19]; repeated 40 mg dose
  % time pH > 4 at nighttime: 56.56% ± 22.47%

## COc1ccc2[nH]c([S+]([O-])Cc3ncc(C)c(OC)c3C)nc2c1 (centres unmarked) [omeprazole]
[20]
  plasma exposure in poor metabolizers with a CYP2C19 mutation: five-fold higher

## Cc1nc2cc(C(=O)N(C)C)cc(O[C@H]3CCOc4cc(F)cc(F)c43)c2[nH]1 [tegoprazan]
[21]
  IC50: 530 nM
[22]; 100 mg once daily, day 1
  Cmax: 1413 ± 24.7 ng/mL
[22]; 100 mg once daily, day 7
  Cmax: 845.2 ± 40.7 ng/mL
[22]; 100 mg once daily
  decrease of Cmax after repeated administration compared with a single dose: 40%
[22]; repeated oral dose of 100 mg
  % time pH > 4 over a 24 h period: 70.4%
[22]; single oral dose of 50 mg, six healthy subjects
  % time pH > 4 over a 24 h period: 48.9%
[23]
  % time pH > 4 over a 24 h period: 66.0 ± 15.7%
[24]
  contribution of CYP3A4 to metabolism to active metabolite M1: about 75%

— PMC11207335, “In Vitro Metabolism and Transport Characteristics of Zastaprazan” (Pharmaceutics, 2024)
